In patent publication US20210238162A1, “CHEMICAL COMPOUNDS” (GlaxoSmithKline Intellectual Property Development Limited, priority 2015, published 2021):
Where a name gives a salt, the structure may show the parent alone. Read-outs that look alike come from different tables or passages of the source.

Biological target: T1, haematopoietic prostaglandin D synthase (H-PGDS) (Homo sapiens, UniProt O60760)
T1 construct: Full length human H-PGDS cDNA (Invitrogen Ultimate ORF IOH13026) was amplified by PCR; made in house; host or cells: E. coli BL21 (DE3*), vector pET22b+
Assay: H-PGDS RapidFire High Throughput Mass Spectrometry Assay
Type: biochemical
Method: The H-PGDS RapidFire™ mass spectrometric assay monitors conversion of prostaglandin H2 (PGH2) to prostaglandin D2 (PGD2) by haematopoietic prostaglandin D synthase (H-PGDS). In the assay format described here, the substrate (PGH2) is formed in situ by the action of cyclooxygenase-2 on arachidonic acid. This first step is set up to be fast, and generates a burst of PGH2 at ˜10 μM. The PGH2 is then further converted to PGD2 by the H-PGDS enzyme. […] Plates are then read on the RapidFire™ high throughput solid phase extraction system (Agilent) which incorporates a solid phase extraction step coupled to a triple quadrupole mass spectrometer (AB SCIEX). Relative levels of PGD2 and PGF2α, which acts as a surrogate for substrate, are measured and a percent conversion calculated.
Full length human H-PGDS cDNA (Invitrogen Ultimate ORF IOH13026) was amplified by PCR with the addition of a 5′ 6-His tag and TEV protease cleavage site. The PCR product was digested with Ndel and Xhol and ligated into pET22b+ (Merck Novagen®). Expression was carried out in E. coli strain BL21 (DE3*) using auto-induction Overnight Express™ Instant TB medium (Merck Novagen®) supplemented with 1% glycerol. The culture was first grown at 37° C. and the temperature was reduced to 25° C. when OD600 reached 2.0. Cells were harvested by centrifugation after a further 18 hr. 10 g of E. coli cell pellet was suspended to a total volume of 80 mL in lysis buffer (20 mM Tris-Cl pH 7.5, 300 mM NaCl, 20 mM imidazole, 5 mM β-mercaptoethanol, 10% glycerol). 1 mg/mL protease inhibitors (Protease Inhibitor Cocktail Set Ill, Merck Calbiochem®) and 1 mg/mL lysozyme were added to the cell suspension. The suspension was then sonicated for 5 min (UltraSonic Processor VCX 750, Cole-Parmer Instrument Co.) with a micro probe (50% amplitude, 10 sec on/off) and then centrifuged at 100,000 g for 90 min (at 4° C.). The supernatant was loaded onto a Ni-NTA HiTrap column (5 mL, GE Heathcare, pre-equilibrated in lysis buffer). The column was washed with 10 column volumes of lysis buffer and eluted with lysis buffer containing 500 mM imidazole. The pooled protein peak fractions were concentrated using a 10 kDa centrifugal filter at 3500 g and 4° C. (Amicon Ultra-15 centrifugal filter unit with Ultracel-10 membrane from Millipore). Further purification of the concentrated protein was carried out using gel filtration chromatography on a HiLoad 26/600 Superdex 75 preparative grade column (GE Healthcare Life Sciences) using 50 mM Tris pH 7.5, 50 mM NaCl, 1 mM dithiothreitol, 1 mM MgCl2. Fractions containing the protein were pooled, concentrated as described above, and stored at −80° C.
The full length human COX-2 gene (accession number L15326) was amplified by PCR to generate an EcoRI-HindIII fragment containing an in-frame FLAG tag. This was subcloned into pFastBac 1 (Invitrogen). The COX2 FLAG plasmid was recombined into the baculovirus genome according to the BAC-to-BAC protocol described by Invitrogen. Transfection into Spodoptera frugiperda (Sf9) insect cells was performed using Cellfectin (Invitrogen), according to the manufacturer's protocol. […] Recombinant virus was added at a Multiplicity of Infection (MOI) of 5 and the culture was allowed to continue for 3 days. Cells were harvested using a continuous feed centrifuge run at 2500 g at a rate of approximately 2 L/min with cooling. The resultant cell slurry was re-centrifuged in pots (2500 g, 20 min, 4° C.) and the cell paste was stored at −80° C. […] The suspension was sonicated in 500 mL batches for 8×5 seconds at 10 u amplitude with the medium tip of an MSE probe sonicator and subsequently incubated at 4° C. for 90 min with gentle stirring. The lysate was centrifuged at 12000 rpm for 45 min at 4° C. in a Sorvall SLA1500 rotor. The supernatant (1400 mL) was added to 420 mL of 20 mM Tris-Cl pH 7.4, 150 mM NaCl, 0.1 mM EDTA to reduce the concentration of n-octyl-β-D-glucopyranoside to 1% w/v.

[1] = H-PGDS RapidFire MS assay, mean pIC50, read-out: Potency Range (mean pIC50) (converted)
[2] = in at least one experimental run, read-out: H-PGDS pIC50 value (converted)

T1 sequence (O60760 whole entry): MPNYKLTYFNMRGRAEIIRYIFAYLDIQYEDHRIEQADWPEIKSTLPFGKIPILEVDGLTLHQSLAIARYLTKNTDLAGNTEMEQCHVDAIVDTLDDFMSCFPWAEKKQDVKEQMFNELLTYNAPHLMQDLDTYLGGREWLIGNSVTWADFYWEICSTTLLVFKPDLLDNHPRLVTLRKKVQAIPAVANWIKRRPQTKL

Row | Compound | IC50 [1] | IC50 [2]
1 | O=C(NC1CCNC1=O)c1cnc2cc(OC(F)F)c(Cl)cc2c1 (stereo in doubt) [Example 117, (S)-6-Chloro-7-(difluoromethoxy)-N-(2-oxopyrrolidin-3-yl)quinoline-3-carboxamide, trifluoroacetate] | < 10 nM | –
2 | O=C(N[C@@H]1CC[C@@H](NCC(F)(F)F)C1)c1cnc2cc(OC(F)F)c(F)cc2c1 [Example 64, 7-(difluoromethoxy)-6-fluoro-N-((1R,3R)-3-((2,2,2-trifluoroethyl)amino)cyclopentyl)quinoline-3-carboxamide] | 10 to 79.4 nM | –
3 | CS(=O)(=O)CCO[C@H]1CC[C@H](NC(=O)c2cnc3cc(OC(F)F)c(Cl)cc3c2)CC1 [Example 139, 6-Chloro-7-(difluoromethoxy)-N-(trans-4-(2-(methylsulfonyl)ethoxy)cyclohexyl)quinoline-3-carboxamide] | < 10 nM | –
4 | COc1c(Cl)ccc2cc(C(=O)NC3CCN(c4nnnn4C)CC3)cnc12 [Example 31, 7-Chloro-8-methoxy-N-(1-(1-methyl-1H-tetrazol-5-yl)piperidin-4-yl)quinoline-3-carboxamide] | 100 to 1000 nM | –
5 | CC(C)(O)[C@H]1CC[C@H](NC(=O)c2cnc3cc(N4CCC4)ccc3c2)CC1 [Example 194, 7-(Azetidin-1-yl)-N-(trans-4-(2-hydroxypropan-2-yl)cyclohexyl)quinoline-3-carboxamide] | < 10 nM | –
6 | O=C(NC1CCCOC1)c1cnc2cc(OC(F)F)c(Cl)cc2c1 (centres unmarked) [Example 149, 6-Chloro-7-(difluoromethoxy)-N-(tetrahydro-2H-pyran-3-yl)quinoline-3-carboxamide] | 10 to 79.4 nM | –
7 | C#CCNC(=O)CO[C@H]1CC[C@H](NC(=O)c2cnc3cc(OC(F)F)c(F)cc3c2)CC1 [Example 102, 7-(Difluoromethoxy)-6-fluoro-N-(trans-4-(2-oxo-2-(prop-2-yn-1-ylamino)ethoxy)cyclohexyl)quinoline-3-carboxamide] | 10 to 79.4 nM | –
8 | Cn1nnnc1N1CCC(NC(=O)c2cnc3cc(C4CC4)ccc3c2)CC1 [Example 44, 7-Cyclopropyl-N-(1-(1-methyl-1H-tetrazol-5-yl)piperidin-4-yl)quinoline-3-carboxamide] | < 10 nM | –
9 | CC(C)C(O)CO[C@H]1CC[C@H](NC(=O)c2cnc3cc(OC(F)F)c(F)cc3c2)CC1 (stereo partly drawn) [Example 79, 7-(Difluoromethoxy)-6-fluoro-N-(trans-4-(2-hydroxy-3-methylbutoxy)cyclohexyl)quinoline-3-carboxamide] | 10 to 79.4 nM | –
10 | CCc1cccc2cc(C(=O)Nc3nccs3)cnc12 [Example 105, 8-Ethyl-N-(thiazol-2-yl)quinoline-3-carboxamide] | 100 to 1000 nM | –
11 | CC(=O)c1cc2ncc(C(=O)N[C@H]3CC[C@H](C(C)(C)O)CC3)cc2cc1Cl [Example 172, 7-Acetyl-6-chloro-N-(trans-4-(2-hydroxypropan-2-yl)cyclohexyl)quinoline-3-carboxamide] | < 10 nM | –
12 | COC(=O)[C@H]1CC[C@H](NC(=O)c2cnc3cc(OC(F)F)c(F)cc3c2)CC1 [Example 86, trans-Methyl 4-(7-(difluoromethoxy)-6-fluoroquinoline-3-carboxamido)cyclohexanecarboxylate] | < 10 nM | –
13 | CC(C)(O)[C@H]1CC[C@H](NC(=O)c2cnc3cc(C4CCC4)ccc3c2)CC1 [Example 197, 7-Cyclobutyl-N-(trans-4-(2-hydroxypropan-2-yl)cyclohexyl)quinoline-3-carboxamide] | 10 to 79.4 nM | –
14 | C[C@@H]1CNC(=O)[C@H]1NC(=O)c1cnc2cc(N3CC(F)C3)c(F)cc2c1 [Example 206, 6-Fluoro-7-(3-fluoroazetidin-1-yl)-N-((3S,4R)-4-methyl-2-oxopyrrolidin-3-yl)quinoline-3-carboxamide] | 10 to 79.4 nM | –
15 | C[C@H]1CCN1c1cc2ncc(C(=O)N[C@H]3CC[C@H](C(C)(C)O)CC3)cc2cc1Cl [Example 187, 6-Chloro-N-(trans-4-(2-hydroxypropan-2-yl)cyclohexyl)-7-((S)-2-methylazetidin-1-yl)quinoline-3-carboxamide] | < 10 nM | 6.31 nM
16 | CC(N[C@H]1CC[C@H](NC(=O)c2cnc3cc(OC(F)F)c(F)cc3c2)CC1)C(F)F (stereo partly drawn) [Example 67, 7-(Difluoromethoxy)-N-(trans-4-((1,1-difluoropropan-2-yl)amino)cyclohexyl)-6-fluoroquinoline-3-carboxamide] | 10 to 79.4 nM | –
17 | Cc1ccc2cc(C(=O)N[C@H]3CC[C@H](C(C)(C)O)CC3)cnc2c1 [Example 186, N-(trans-4-(2-Hydroxypropan-2-yl)cyclohexyl)-7-methylquinoline-3-carboxamide] | 100 to 1000 nM | –
18 | Cn1nnnc1N1CCC(NC(=O)c2cnc3c4c(ccc3c2)CCO4)CC1 [Example 112, N-(1-(1-Methyl-1H-tetrazol-5-yl)piperidin-4-yl)-2,3-dihydrofuro[3,2-h]quinoline-7-carboxamide] | 10 to 79.4 nM | –
19 | O=C(N[C@H]1CC[C@H](NCC(F)F)CC1)c1cnc2cc(C3CC3)c(F)cc2c1 [Example 43, 7-Cyclopropyl-N-(trans-4-((2,2-difluoroethyl)amino)cyclohexyl)-6-fluoroquinoline-3-carboxamide] | < 10 nM | –
20 | COc1cc2ncc(C(=O)NC3CCN(c4nnnn4C)CC3)cc2cc1Cl [Example 32, 6-Chloro-7-methoxy-N-(1-(1-methyl-1H-tetrazol-5-yl)piperidin-4-yl)quinoline-3-carboxamide] | 10 to 79.4 nM | –
21 | C#CCOC[C@H]1CC[C@H](NC(=O)c2cnc3cc(OC(F)F)c(F)cc3c2)CC1 [Example 101, 7-(Difluoromethoxy)-6-fluoro-N-(trans-4-((prop-2-yn-1-yloxy)methyl)cyclohexyl)quinoline-3-carboxamide] | < 10 nM | –
22 | CC(C)(O)[C@H]1CC[C@H](NC(=O)c2cnc3cc(N4CC(F)(F)C4)c(F)cc3c2)CC1 [Example 177, 7-(3,3-Difluoroazetidin-1-yl)-6-fluoro-N-(trans-4-(2-hydroxypropan-2-yl)cyclohexyl)quinoline-3-carboxamide] | 10 to 79.4 nM | 20 nM
23 | C[N+](C)([O-])[C@H]1CC[C@H](NC(=O)c2cnc3cc(OC(F)F)c(Cl)cc3c2)CC1 [Example 208, trans-4-(6-Chloro-7-(difluoromethoxy)quinoline-3-carboxamido)-N,N-dimethylcyclohexanamine oxide] | 10 to 79.4 nM | –
24 | O=C(N[C@H]1CC[C@](O)(C(F)(F)F)CC1)c1cnc2cc(OC(F)F)c(Cl)cc2c1 [Example 223, 6-Chloro-7-(difluoromethoxy)-N-((cis)-4-hydroxy-4-(trifluoromethyl)cyclohexyl)quinoline-3-carboxamide] | 10 to 79.4 nM | –
25 | CC(C)(O)C(=O)N1CCN(NC(=O)c2cnc3cc(OC(F)F)c(Cl)cc3c2)CC1 [Example 224, 6-Chloro-7-(difluoromethoxy)-N-(4-(2-hydroxy-2-methylpropanoyl)piperazin-1-yl)quinoline-3-carboxamide] | 10 to 79.4 nM | –
26 | O=C(N[C@H]1CONC1=O)c1cnc2cc(C3CC3)c(Cl)cc2c1 [Example 38, (S)-6-Chloro-7-cyclopropyl-N-(3-oxoisoxazolidin-4-yl)quinoline-3-carboxamide] | < 10 nM | –
27 | CC(C)(O)[C@H]1CC[C@H](NC(=O)c2cnc3cc(C4CC4)c(Cl)cc3c2)CC1 [Example 39] | < 10 nM | –
